# Patent US4774230A, “Glucuronic acid derivatives of opioid antagonists” (Ivax Laboratories, Inc., priority 1988, dated 1988)
# Where a name gives a salt, the structure may show the parent alone.
# Key:
# [1] = test system: intestinal transit; assay: charcoal meal assay (gastrointestinal motility), alleviation of morphine-induced hypomotility; type: in vivo, mice; settings: for effect on intestinal transit in the absence of morphine: no morphine, groups 4 and 6; for protection of the intestine against the depressant effect of morphine / percentage of intestine traveled compared with group 1 (no morphine): with morphine; for protection of the intestine against the depressant effect of morphine: groups 5 and 7; for percentage of intestine traveled compared with group 1 (no morphine): groups 5 and 7 vs group 1
# Procedure: Summary of the Results of the Charcoal Meal Assay^a
# (Gastrointestial Motility) in Mice Given Nalmefene HCl
# and Nalmefene-β-D-Glucuronide
# ^b The first vehicle or drug listed under Treatment was given 30
# minutes before the second vehicle or drug listed. The results were
# determined 30 min later. All treatments are p.o. and given in a volume of
# 0.3 ml. Doses were 10 mg/kg for morphine, 15 mg/kg or 2.9 ×
# [2] = test system: opioid-dependant animals (central nervous system); assay: Rapid Quantitative In Vivo Assay for Narcotic Antagonist (skin tail temperature rise, CNS withdrawal sign); settings: FIG. 2; injection of 1000 μg/kg
# Description: The Rapid Quantitative In Vivo Assay for Narcotic Antagonist of Katovich et al. (Substance and Alcohol Actions/Misuse, vol 5: 87095, 1984) was used. This assay is based on the extreme sensitivity of opioid-dependant animals to narcotic antagonists. Injection of these animals with a narcotic antagonist produces severe central nervous system withdrawal signs. One of these signs is an abrupt rise in the skin temperature of the tail.
# [3] = absorption and distribution of ^14 C labelled nalmefene glucuronide after oral administration; type: in vivo, rats
# Description: Therefore the glucuronide of an opioid antagonist provides a means of preventing narcotic-induced intestinal hypomotility without interfering with central nervous system effects of narcotics, such as analgesia.
# [4] = analysis of blood, urine and feces after oral nalmefene (free nalmefene versus nalmefene glucuronide); type: in vivo, rats; settings: oral administration
# Description: Such a high degree of biotransformation is common for this type of drug.
# [5] = test system: constipation; settings: patients not exposed to an exogenous opioid; Kreek et al., Lancet 1983; cited from earlier work
structure (smiles),measurement,setting,value
CN1CC[C@]23c4c5ccc(O)c4O[C@H]2[C@@H](O)C=C[C@H]3[C@H]1C5 [Morphine],Percent Meal Traveled ± S.E.M.,"[1]; Group 2: Saline + Morphine, morphine 10 mg/kg p.o. given 30 min after saline, N = 8, significantly different (p < 0.05) from Saline + Saline controls",28 ± 2%
same,Percent Meal Traveled ± S.E.M.,"[1]; Group 3: Morphine + Saline, morphine 10 mg/kg p.o. given 30 min before saline, N = 8, p < 0.05 vs Saline + Saline, no difference vs Saline + Morphine",31 ± 3%
same,reduction of the percentage of the intestine traveled,"[1]; morphine, groups 2 and 3",reduced the percentage of the intestine traveled by more than half
C=C1CC[C@@]2(O)[C@H]3Cc4ccc(O)c5c4[C@@]2(CCN3CC2CC2)[C@H]1O5 [Nalmefene HCl],Percent Meal Traveled ± S.E.M.,"[1]; Group 6: Saline + Nalmefene HCl, 2.9 × 10^-6 M/kg p.o., N = 8",63 ± 2%
same,Percent Meal Traveled ± S.E.M.,"[1]; Group 7: Morphine (10 mg/kg p.o., 30 min before) + Nalmefene HCl 2.9 × 10^-6 M/kg p.o., N = 5, no difference vs Saline + Saline, p < 0.05 vs Morphine + Saline",66 ± 14%
"C=C1CC[C@@]2(O)[C@H]3Cc4ccc(O[C@@H]5O[C@H](C(=O)O)[C@@H](O)[C@H](O)[C@H]5O)c5c4[C@@]2(CCN3CC2CC2)[C@H]1O5 [nalmefene glucuronide, nalmefene-3β-D-glucuronide]",effect on skin tail temperature,[2],no effect
same,Percent Meal Traveled ± S.E.M.,"[1]; Group 4: Saline + Nalmefene Glucuronide, 15 mg/kg or 2.9 × 10^-6 M/kg p.o., N = 8, no significant difference vs Saline + Saline",66 ± 3%
same,Percent Meal Traveled ± S.E.M.,"[1]; Group 5: Morphine (10 mg/kg p.o., 30 min before) + Nalmefene Glucuronide 15 mg/kg or 2.9 × 10^-6 M/kg p.o., N = 5, no difference vs Saline + Saline, p < 0.05 vs Morphine + Saline",58 ± 12%
same,effect on intestinal transit in the absence of morphine,[1],neither nalmefene (group 6) nor nalmefene glucuronide (group 4) had any significant effect
same,effectiveness against morphine-induced intestinal hypomotility compared with nalmefene,[1]; vs nalmefene,as effective as nalmefene
same,protection of the intestine against the depressant effect of morphine,[1],protected the intestine against the depressant effect of morphine
same,percentage of intestine traveled compared with group 1 (no morphine),[1],not significantly less than in the group (group 1) where no morphine was present
same,form of the drug in the cecum,[3]; 2 hours after oral dosing,almost exclusively free nalmefene
same,part of the dose present in the small intestine still as nalmefene glucuronide,[3]; 2 hours after oral dosing,about 85%
same,part of the dose which had reached the cecum,[3]; 2 hours after oral dosing,2-3%
same,radioactivity in plasma,[3]; 2 hours after oral dosing,No radioactivity could be detected in plasma
same,absorption following oral administration,"[3]; ^14 C label, oral doses as high as 40 mg/kg",not absorbed to any measurable extent
"C=C1CC[C@@]2(O)[C@H]3Cc4ccc(O)c5c4[C@@]2(CCN3CC2CC2)[C@H]1O5 [nalmefene, 6-methylene-6-desoxy-N-cyclopropylmethyl-14-hydroxydihydronormorphine]","biotransformation by ""first-pass"" metabolism",[4],almost totally biotransformed
same,effect on intestinal transit in the absence of morphine,[1],neither nalmefene (group 6) nor nalmefene glucuronide (group 4) had any significant effect
same,protection of the intestine against the depressant effect of morphine,[1],protected the intestine against the depressant effect of morphine
same,percentage of intestine traveled compared with group 1 (no morphine),[1],not significantly less than in the group (group 1) where no morphine was present
C=CCN1CC[C@]23c4c5ccc(O)c4O[C@H]2C(=O)CC[C@@]3(O)[C@H]1C5 [naloxone],relief of constipation,[5],relieves constipation
